Source: patent US8802597B2, “Herbicidal pyrimidines” (E I du Pont de Nemours and Company, priority 2003, dated 2014)
Like-named read-outs stand apart in the source and are kept apart here.

Assays:
Type in all cases: in vivo
[1] = test system: wild oat (Avena fatua); assay: Test B postemergence; details: Avena fatua, post-emergence, scale 0 to 100 (0 no effect, 100 complete control), read-out: Oat, Wild plant response rating
Summary of the method: (§1)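 Formulation: non-phytotoxic solvent blend with surfactant. Timing: preemergence on seeds, postemergence at 1- to 4-leaf (2–18 cm). Assessment: visual, 0–100 against controls, after 13–15 days' greenhouse growth.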

[2] = test system: blackgrass (Alopecurus myosuroides); assay: Test B postemergence; details: Alopecurus myosuroides, post-emergence, scale 0 to 100 (0 no effect, 100 complete control), read-out: Blackgrass plant response rating
Summary of the method: as §1

[3] = test system: morningglory (Ipomoea coccinea); assay: Test B pre/postemergence; details: Ipomoea; for pest or weed control at 62 g/ha: 62 g ai/ha; for pest or weed control at 125 g/ha: 125 g ai/ha
Summary of the method: as §1

[4] = test system: crabgrass (Digitaria sanguinalis); assay: Test B pre/postemergence; details: Digitaria sanguinalis; for pest or weed control at 62 g/ha: 62 g ai/ha; for pest or weed control at 125 g/ha: 125 g ai/ha
Summary of the method: as §1

[5] = test system: pigweed (Amaranthus retroflexus); assay: Test B pre/postemergence; details: Amaranthus retroflexus; for pest or weed control at 62 g/ha: 62 g ai/ha; for pest or weed control at 125 g/ha: 125 g ai/ha
Summary of the method: as §1

[6] = test system: velvetleaf (Abutilon theophrasti); assay: Test B pre/postemergence; details: Abutilon theophrasti; for pest or weed control at 62 g/ha: 62 g ai/ha; for pest or weed control at 125 g/ha: 125 g ai/ha
Summary of the method: as §1

[7] = test system: wheat (Triticum aestivum); assay: Test B pre/postemergence; details: Triticum aestivum, scale 0 to 100 (0 no effect, 100 complete control); for plant injury at 62 g/ha: 62 g ai/ha; for plant injury at 125 g/ha: 125 g ai/ha
Summary of the method: as §1

[8] = test system: cocklebur (Xanthium strumarium); assay: Test B pre/postemergence; details: for pest or weed control at 125 g/ha: 125 g ai/ha
Summary of the method: as §1

[9] = test system: barnyardgrass (Echinochloa crus-galli); assay: Test B pre/postemergence; details: Echinochloa crus-galli, scale 0 to 100 (0 no effect, 100 complete control); for pest or weed control at 62 g/ha: 62 g ai/ha; for pest or weed control at 125 g/ha: 125 g ai/ha
Summary of the method: as §1

[10] = test system: Surinam grass (Brachiaria decumbens); assay: Test B pre/postemergence; details: Urochloa decumbens; for pest or weed control at 125 g/ha: 125 g ai/ha; for pest or weed control at 62 g/ha: 62 g ai/ha
Summary of the method: as §1

[11] = test system: lambsquarters (Chenopodium album); assay: Test B pre/postemergence; details: Chenopodium album; for pest or weed control at 62 g/ha: 62 g ai/ha; for pest or weed control at 125 g/ha: 125 g ai/ha
Summary of the method: as §1

[12] = test system: corn (Zea mays); assay: Test B pre/postemergence; details: Zea mays
Summary of the method: as §1

[13] = test system: giant foxtail (Setaria faberii); assay: Test B pre/postemergence; details: Setaria faberi; for pest or weed control at 125 g/ha: 125 g ai/ha; for pest or weed control at 62 g/ha: 62 g ai/ha
Summary of the method: as §1

[14] = test system: duck salad (Heteranthera limosa); assay: Test B flooded paddy test; details: Heteranthera limosa, Flood, scale 0 to 100, read-out: Plant response rating, Ducksalad
Summary of the method: (§2)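 Rice, umbrella sedge, duck salad and barnyardgrass grown to 2-leaf stage under flooded paddy conditions and treated with formulated test chemicals. Kept in greenhouse 13–15 days, then visually rated against untreated controls on a 0–100 scale (0 no effect, 100 complete control).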

[15] = test system: barnyardgrass (Echinochloa crus-galli); assay: Test B flooded paddy test; details: Flood, scale 0 to 100
Summary of the method: as §2

[16] = test system: rice (Oryza sativa); assay: Test B flooded paddy test; details: Flood, scale 0 to 100
Summary of the method: as §2

[17] = test system: umbrella sedge (Cyperus difformis); assay: Test B flooded paddy test; details: Flood, scale 0 to 100
Summary of the method: as §2

[18] = post-emergence, Postemergence, scale 0 to 100 (0 no effect, 100 complete control), read-out: Morningglory plant response rating
[19] = post-emergence, Postemergence, scale 0 to 100 (0 no effect, 100 complete control), read-out: Crabgrass plant response rating
[20] = post-emergence, Postemergence, scale 0 to 100 (0 no effect, 100 complete control), read-out: Pigweed plant response rating
[21] = post-emergence, Postemergence, scale 0 to 100 (0 no effect, 100 complete control), read-out: Velvetleaf plant response rating
[22] = post-emergence, Postemergence, read-out: Wheat plant response rating
[23] = pre-emergence, Preemergence, read-out: Plant response rating, Wheat
[24] = post-emergence, Postemergence, read-out: Barnyardgrass plant response rating
[25] = pre-emergence, Preemergence, read-out: Plant response rating, Barnyardgrass
[26] = post-emergence, Postemergence, scale 0 to 100 (0 no effect, 100 complete control), read-out: Surinam Grass plant response rating
[27] = post-emergence, Postemergence, scale 0 to 100 (0 no effect, 100 complete control), read-out: Lambsquarters plant response rating
[28] = post-emergence, Postemergence, scale 0 to 100 (0 no effect, 100 complete control), read-out: Foxtail, Giant plant response rating

Nc1nc(C2CC2)nc(C(=O)[O-])c1Cl.[Na+] [Compound 77, 6-amino-5-chloro-2-cyclopropyl-4-pyrimidinecarboxylic acid monosodium salt]
pest or weed control at 62 g/ha ([1]; 62 g ai/ha): 50%
pest or weed control at 125 g/ha ([1]; 125 g ai/ha): 60%
pest or weed control at 62 g/ha ([2]; 62 g ai/ha): 50%
pest or weed control at 125 g/ha ([2]; 125 g ai/ha): 60%
pest or weed control at 62 g/ha [3, 18]: 100%
pest or weed control at 125 g/ha [3, 18]: 100%
pest or weed control at 62 g/ha ([3]; pre-emergence, Preemergence, scale 0 to 100, 0 no effect, 100 complete control, read-out: Plant response rating, Morningglory): 100%
pest or weed control at 125 g/ha ([3]; pre-emergence, Preemergence, scale 0 to 100 (0 no effect, 100 complete control), read-out: Plant response rating, Morningglory): 100%
pest or weed control at 62 g/ha [4, 19]: 70%
pest or weed control at 125 g/ha [4, 19]: 80%
pest or weed control at 62 g/ha ([4]; pre-emergence, Preemergence, scale 0 to 100, 0 no effect, 100 complete control, read-out: Plant response rating, Crabgrass): 80%
pest or weed control at 125 g/ha ([4]; pre-emergence, Preemergence, scale 0 to 100 (0 no effect, 100 complete control), read-out: Plant response rating, Crabgrass): 90%
pest or weed control at 62 g/ha [5, 20]: 90%
pest or weed control at 125 g/ha [5, 20]: 100%
pest or weed control at 62 g/ha ([5]; pre-emergence, Preemergence, scale 0 to 100, 0 no effect, 100 complete control, read-out: Plant response rating, Pigweed): 100%
pest or weed control at 125 g/ha ([5]; pre-emergence, Preemergence, scale 0 to 100 (0 no effect, 100 complete control), read-out: Plant response rating, Pigweed): 100%
pest or weed control at 62 g/ha [6, 21]: 80%
pest or weed control at 125 g/ha [6, 21]: 90%
pest or weed control at 62 g/ha ([6]; pre-emergence, Preemergence, scale 0 to 100, 0 no effect, 100 complete control, read-out: Plant response rating, Velvetleaf): 80%
pest or weed control at 125 g/ha ([6]; pre-emergence, Preemergence, scale 0 to 100 (0 no effect, 100 complete control), read-out: Plant response rating, Velvetleaf): 100%
plant injury at 62 g/ha [7, 22]: 50%
plant injury at 125 g/ha [7, 22]: 60%
plant injury at 62 g/ha [7, 23]: 70%
plant injury at 125 g/ha [7, 23]: 70%
Cocklebur plant response rating ([8]; Postemergence, 62 g ai/ha, scale 0 to 100 (0 no effect, 100 complete control)): 70
pest or weed control at 125 g/ha ([8]; Xanthium strumarium, post-emergence, Postemergence, scale 0 to 100 (0 no effect, 100 complete control), read-out: Cocklebur plant response rating): 100%
pest or weed control at 62 g/ha ([8]; Xanthium strumarium, pre-emergence, Preemergence, 62 g ai/ha, scale 0 to 100, 0 no effect, 100 complete control, read-out: Plant response rating, Cocklebur): 80%
pest or weed control at 125 g/ha ([8]; Xanthium strumarium, pre-emergence, Preemergence, scale 0 to 100 (0 no effect, 100 complete control), read-out: Plant response rating, Cocklebur): 100%
pest or weed control at 62 g/ha [9, 24]: 60%
pest or weed control at 125 g/ha [9, 24]: 90%
pest or weed control at 62 g/ha [9, 25]: 70%
pest or weed control at 125 g/ha [9, 25]: 90%
pest or weed control at 125 g/ha [10, 26]: 80%
pest or weed control at 62 g/ha [10, 26]: 70%
pest or weed control at 125 g/ha ([10]; pre-emergence, Preemergence, scale 0 to 100 (0 no effect, 100 complete control), read-out: Plant response rating, Surinam Grass): 90%
pest or weed control at 62 g/ha ([10]; pre-emergence, Preemergence, scale 0 to 100, 0 no effect, 100 complete control, read-out: Plant response rating, Surinam Grass): 60%
pest or weed control at 62 g/ha [11, 27]: 100%
pest or weed control at 125 g/ha [11, 27]: 100%
pest or weed control at 62 g/ha ([11]; pre-emergence, Preemergence, scale 0 to 100, 0 no effect, 100 complete control, read-out: Plant response rating, Lambsquarters): 100%
pest or weed control at 125 g/ha ([11]; pre-emergence, Preemergence, scale 0 to 100 (0 no effect, 100 complete control), read-out: Plant response rating, Lambsquarters): 100%
plant injury at 62 g/ha ([12]; post-emergence, Postemergence, 62 g ai/ha, scale 0 to 100 (0 no effect, 100 complete control), read-out: Corn plant response rating): 30%
plant injury at 125 g/ha ([12]; post-emergence, Postemergence, 125 g ai/ha, scale 0 to 100 (0 no effect, 100 complete control), read-out: Corn plant response rating): 80%
Corn plant response rating (crop injury, 0 = no effect, 100 = complete kill) at 62 g/ha ([12]; pre-emergence, Preemergence, 62 g ai/ha, scale 0 to 100, 0 no effect, 100 complete control): 70%
Corn plant response rating (crop injury, 0 = no effect, 100 = complete kill) at 125 g/ha ([12]; pre-emergence, Preemergence, 125 g ai/ha, scale 0 to 100 (0 no effect, 100 complete control)): 80%
pest or weed control at 125 g/ha [13, 28]: 80%
pest or weed control at 62 g/ha [13, 28]: 70%
pest or weed control at 125 g/ha ([13]; pre-emergence, Preemergence, scale 0 to 100 (0 no effect, 100 complete control), read-out: Plant response rating, Foxtail, Giant): 90%
pest or weed control at 62 g/ha ([13]; pre-emergence, Preemergence, scale 0 to 100, 0 no effect, 100 complete control, read-out: Plant response rating, Foxtail, Giant): 70%
pest or weed control at 125 g/ha ([14]; 125 g ai/ha): 40%
pest or weed control at 500 g/ha ([14]; 500 g ai/ha): 80%
pest or weed control at 500 g/ha ([15]; Echinochloa crus-galli, 500 g ai/ha, read-out: Plant response rating, Barnyardgrass): 60%
Plant response rating, Barnyardgrass ([15]; 125 g ai/ha): 0
Plant response rating, Rice ([16]; 125 g ai/ha): 0
plant injury at 500 g/ha ([16]; Oryza sativa, 500 g ai/ha, read-out: Plant response rating, Rice): 50%
Plant response rating, Sedge, Umbrella ([17]; 125 g ai/ha): 0
Plant response rating, Sedge, Umbrella ([17]; 500 g ai/ha): 40
